Columns and labels:
Test in all cases: relative viability (nuclei count vs DMSO), 5 days (fraction); higher = more cells survive
[1] = compound: CC1CC(=O)N(C2=CN=C(N=C2N1C3CCCC3)NC4=C(C=C(C=C4)C(=O)NC5CCN(CC5)C)OC)C [NPK76-II-72-1]
Procedure, shortened: (§1)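 Hoechst staining, done together with fixation and permeabilisation, marked nuclei for 4× imaging and MetaXpress counting. This followed 5 days without medium change after lung cancer cell lines, kept overnight at 37 °C in 1536-well plates, were pinned with five library-drug doses (not always all listed) spaced by √10 on vehicle-anchored plates. Viability is the ratio of treated-well to vehicle-well nuclei, expressed as a median across plates. Plates passed only at control CV below 25% with at least one doubling.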

[2] = compound: CC[C@@H]1C(=O)N(C)c2cnc(Nc3ccc(C(=O)NC4CCN(C)CC4)cc3OC)nc2N1C1CCCC1 [BI-2536]
Procedure, shortened: as §1

[3] = compound: CC1CC(=O)N(C2=CN=C(N=C2N1C3CCCC3)NC4=C(C=C(C=C4)C(=O)NC5CCN(CC5)C)OC)C [NPK76-II-72-1] + CC1(C)CCC(c2ccc(Cl)cc2)=C(CN2CCN(c3ccc(C(=O)NS(=O)(=O)c4ccc(N[C@H](CCN5CCOCC5)CSc5ccccc5)c(S(=O)(=O)C(F)(F)F)c4)cc3)CC2)C1 [Navitoclax] (partner 0.5 µM)
Procedure, shortened: (§2)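 Dosing by pin tool came one day after lung cancer cell lines were seeded in 1536-well plates, using either one drug or a fixed anchor-drug dose plus five library-drug doses (not always all listed) in √10 steps. After 5 days, nuclei were counted on 4× images. Relative viability is treated-well nuclei count divided by vehicle-well nuclei count, and values are medians of duplicate plates.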

[4] = compound: CC1CC(=O)N(C2=CN=C(N=C2N1C3CCCC3)NC4=C(C=C(C=C4)C(=O)NC5CCN(CC5)C)OC)C [NPK76-II-72-1] + COc1cc2c(Oc3ccc(NC(=O)C4(C(=O)Nc5ccc(F)cc5)CC4)cc3F)ccnc2cc1OCCCN1CCOCC1 [Foretinib] (partner 0.25 µM)
Procedure, shortened: as §2

Cell Line	relative viability ([1]; 0.01 µM)	relative viability ([1]; 0.03162 µM)	relative viability ([1]; 0.1 µM)	relative viability ([1]; 0.3162 µM)	relative viability ([1]; 1 µM)	relative viability ([2]; 0.01 µM)	relative viability ([2]; 0.03162 µM)	relative viability ([2]; 0.1 µM)	relative viability ([2]; 0.3162 µM)	relative viability ([2]; 1 µM)	relative viability ([3]; first compound 0.01 µM)	relative viability ([3]; first compound 0.03162 µM)	relative viability ([3]; first compound 0.1 µM)	relative viability ([3]; first compound 0.3162 µM)	relative viability ([3]; first compound 1 µM)	relative viability ([4]; first compound 0.01 µM)	relative viability ([4]; first compound 0.03162 µM)	relative viability ([4]; first compound 0.1 µM)	relative viability ([4]; first compound 0.3162 µM)	relative viability ([4]; first compound 1 µM)
NCI-H1650	0.86	0.993	0.929	0.891	0.996	0.889	0.801	0.219	0.14	0.143	1.08	1.12	1.23	1.12	1.07	1.16	1.06	0.966	0.943	1.37
NCI-H1395	0.893	0.906	0.953	0.955	0.993	0.844	0.817	0.435	0.337	0.34	0.994	1.14	1.24	1.46	1.25	1.02	0.959	0.954	1.1	0.95
LU99A	0.882	0.946	0.945	0.875	1.02	0.939	0.815	0.449	0.245	0.214	0.804	0.766	0.785	0.889	0.692	0.774	0.765	0.936	0.503	0.979
NCI-H1355	0.933	0.976	0.987	0.92	1.02	1.01	0.958	0.638	0.174	0.163	0.881	0.959	0.928	0.871	0.993	0.929	0.932	0.926	0.852	0.982
HCC-78	0.881	0.903	0.931	0.976	1	0.972	1.04	0.831	0.579	0.247	–	0.846	0.719	–	0.732	0.561	0.549	0.489	0.507	0.616
HCC-15	0.939	1.1	0.988	0.93	1.01	1.04	0.925	0.466	0.15	0.146	0.692	0.739	0.662	0.686	0.804	1.05	1.18	0.92	0.969	1.1
EKVX	0.946	0.938	0.953	0.713	1.21	0.966	1.05	0.958	0.254	0.165	0.909	1.03	0.865	0.648	1.13	0.428	0.878	0.773	0.3	1.15
NCI-H2087	0.98	1.03	0.868	0.889	1.05	1.11	1.06	0.607	0.105	0.133	0.972	1.02	0.997	0.919	1.06	1.04	1.06	1.09	1.12	1.32
LK-2	0.961	0.912	0.962	0.832	1.01	0.832	0.887	0.623	0.128	0.207	0.769	0.83	0.961	0.723	0.879	1.15	1.26	1.09	1.09	1.13
NCI-H1437	0.981	0.972	0.952	0.964	1.01	0.981	0.911	0.804	0.184	0.174	1.17	1.11	0.967	0.978	1.13	1.22	1.27	1.15	1.11	1.25
COR-L23	0.977	1.06	0.998	1.01	1.01	1.09	1.13	0.333	0.136	0.135	0.823	0.969	0.92	0.995	1.03	0.915	0.977	1.01	0.9	0.979
NCI-H838	0.912	1.03	0.954	0.959	1.02	0.99	0.946	0.826	0.164	0.162	1.11	1.19	1.19	1.09	1.11	0.956	0.99	1.1	0.949	1.09
A549	0.937	1.05	1.01	1	1.03	0.987	0.936	0.628	0.0475	0.0473	1.17	1.29	1.22	1.12	1.15	0.937	0.979	0.93	0.856	1.05
A-427	0.943	1.07	0.984	0.929	0.977	0.996	0.961	0.589	0.137	0.151	1.01	0.941	0.92	1.05	0.96	0.923	1.04	1.08	1.14	1.07
LCLC-97TM1	1.07	1.03	0.959	0.752	1.13	0.969	1.01	0.813	0.129	0.0948	–	0.392	0.52	0.439	0.488	0.935	0.973	0.85	0.881	0.948
NCI-H1703	0.842	1.07	0.935	0.979	1.27	0.896	0.614	0.525	0.158	0.131	0.961	1.59	1.27	1.19	1.38	0.363	–	0.316	0.35	0.343

— the supplement of paper PMC10307832
